One series addresses T1, recombinant human UGT1A9 (Homo sapiens, UniProt O60656).
T1 sequence (O60656 26-530): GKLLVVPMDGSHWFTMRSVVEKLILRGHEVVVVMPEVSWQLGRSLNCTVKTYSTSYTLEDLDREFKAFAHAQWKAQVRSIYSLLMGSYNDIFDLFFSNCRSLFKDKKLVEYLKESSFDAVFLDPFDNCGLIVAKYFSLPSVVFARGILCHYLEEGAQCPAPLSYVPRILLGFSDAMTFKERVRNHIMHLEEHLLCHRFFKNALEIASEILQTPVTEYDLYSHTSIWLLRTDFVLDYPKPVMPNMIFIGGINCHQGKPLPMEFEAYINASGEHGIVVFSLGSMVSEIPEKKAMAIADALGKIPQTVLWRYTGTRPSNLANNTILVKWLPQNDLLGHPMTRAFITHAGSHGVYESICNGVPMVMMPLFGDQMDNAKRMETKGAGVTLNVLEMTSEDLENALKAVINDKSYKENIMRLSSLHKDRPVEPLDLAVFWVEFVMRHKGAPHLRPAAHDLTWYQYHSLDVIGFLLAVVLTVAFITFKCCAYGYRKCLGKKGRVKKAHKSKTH
The series can be described thus: Glucuronidation by recombinant UGT1A9 (activity screen and steady-state kinetics). To be noted: UDP-GlcUA 4 mM; for glucuronidation activity (initial screen): 750 μM substrate, 90 min.

The next series deals with T2, recombinant human UGT2B7 (Homo sapiens, UniProt P16662).
T2 sequence (P16662 24-529): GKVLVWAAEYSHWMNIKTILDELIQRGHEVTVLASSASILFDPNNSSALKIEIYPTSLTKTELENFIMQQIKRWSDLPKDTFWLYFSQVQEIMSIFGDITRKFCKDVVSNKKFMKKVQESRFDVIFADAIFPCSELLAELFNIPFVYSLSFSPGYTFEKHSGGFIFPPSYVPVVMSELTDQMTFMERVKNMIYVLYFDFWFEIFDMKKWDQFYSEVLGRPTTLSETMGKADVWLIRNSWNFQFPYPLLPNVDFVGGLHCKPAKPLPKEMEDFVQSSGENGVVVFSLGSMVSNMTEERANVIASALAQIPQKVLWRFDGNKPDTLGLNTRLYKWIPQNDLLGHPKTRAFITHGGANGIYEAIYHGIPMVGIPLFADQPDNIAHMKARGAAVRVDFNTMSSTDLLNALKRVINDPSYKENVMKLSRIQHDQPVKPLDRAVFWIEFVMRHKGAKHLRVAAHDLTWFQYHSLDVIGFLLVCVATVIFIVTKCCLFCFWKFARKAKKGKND
The series can be described thus: Glucuronidation by recombinant UGT2B7 (activity screen). As to conditions: 750 μM substrate, UDP-GlcUA 4 mM, 90 min.

Series [1] has as its target T3, recombinant human UGT2B17 (Homo sapiens, UniProt O75795).
T3 sequence (O75795 24-530): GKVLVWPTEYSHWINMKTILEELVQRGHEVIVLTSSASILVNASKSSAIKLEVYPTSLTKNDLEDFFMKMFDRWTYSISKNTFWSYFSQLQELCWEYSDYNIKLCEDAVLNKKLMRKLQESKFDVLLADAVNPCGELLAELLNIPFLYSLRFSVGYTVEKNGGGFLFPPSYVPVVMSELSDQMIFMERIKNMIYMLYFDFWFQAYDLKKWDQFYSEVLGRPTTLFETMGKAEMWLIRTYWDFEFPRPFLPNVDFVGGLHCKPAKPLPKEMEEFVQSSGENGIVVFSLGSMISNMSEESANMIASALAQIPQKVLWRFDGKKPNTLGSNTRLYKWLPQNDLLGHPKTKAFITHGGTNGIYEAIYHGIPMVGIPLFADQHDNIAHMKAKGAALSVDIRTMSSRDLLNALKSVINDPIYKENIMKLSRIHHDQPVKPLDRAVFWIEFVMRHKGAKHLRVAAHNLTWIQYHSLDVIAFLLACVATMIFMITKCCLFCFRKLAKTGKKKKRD
The series can be described thus: Glucuronidation by recombinant UGT2B17 (activity screen). As to conditions: 750 μM substrate, UDP-GlcUA 4 mM, 90 min.

In series [2] the test system is human UGTs. The series can be described thus: Glucuronidation activity across the tested human recombinant UGTs. To be noted: 12 human recombinant UGTs; 750 μM substrate, UDP-GlcUA 4 mM, 90 min.
Another series relates to human liver microsomes. In words: Glucuronidation by human liver microsomes (activity screen). To be noted: human liver microsomes (HLM); 750 μM substrate, UDP-GlcUA 4 mM, 90 min. (Liver microsomes are a subcellular fraction often used to study metabolism.)
In series [3] the test system is human UGTs. In words: LC-MS/MS confirmation of glucuronidated products. The format is in vitro ADME. To be noted: recombinant protein, 750 μM substrate, UDP-glucuronic acid 4 mM, 180 min, negative ion mode. The protocol: FIG. 3 depicts a series of graphs illustrating RP-HPLC chromatographs of glucuronidated-product ion experiments. Tracings represent organic-soluble metabolites generated during incubation of recombinant protein with UDP-glucuronic acid (4 mM) and 750 μM of each substrate (A) Δ^9-THC, (B) CBN, (C) 11-OH-THC, (D) CBD, and (E) COOH-THC. Each substrate was incubated individually for 180 min. Control reactions omitted the respective substrate. MS/MS data were obtained in negative ion mode, as described in the Examples.
Liquid chromatography-tandem mass spectrometry (LC-MS/MS) analyses for product confirmation were performed using an Agilent 1100 HPLC system (Santa Clara. Calif.) which was interfaced with an API 4000 triple quadrupole (MS/MS) mass spectrometer (Applied Biosystems. Foster City. Calif.). Instrument operation and data acquisition was controlled through the Analyst software package (Version 1.4.2, Applied Biosystems). The HPLC system consisted of an autosampler, a binary pump, and a column oven. […]
Trace amounts of glucuronidated product was detected for all the substrates, but in some cases, where kinetic information could not be obtained, the physiological significance remains to be determined. […] In particular, the presence of bis- and/or diglucuronidated products was not detected.

Series [4] has as its target T4, recombinant human UGT1A10 (Homo sapiens, UniProt Q9HAW8).
T4 sequence (Q9HAW8 26-530): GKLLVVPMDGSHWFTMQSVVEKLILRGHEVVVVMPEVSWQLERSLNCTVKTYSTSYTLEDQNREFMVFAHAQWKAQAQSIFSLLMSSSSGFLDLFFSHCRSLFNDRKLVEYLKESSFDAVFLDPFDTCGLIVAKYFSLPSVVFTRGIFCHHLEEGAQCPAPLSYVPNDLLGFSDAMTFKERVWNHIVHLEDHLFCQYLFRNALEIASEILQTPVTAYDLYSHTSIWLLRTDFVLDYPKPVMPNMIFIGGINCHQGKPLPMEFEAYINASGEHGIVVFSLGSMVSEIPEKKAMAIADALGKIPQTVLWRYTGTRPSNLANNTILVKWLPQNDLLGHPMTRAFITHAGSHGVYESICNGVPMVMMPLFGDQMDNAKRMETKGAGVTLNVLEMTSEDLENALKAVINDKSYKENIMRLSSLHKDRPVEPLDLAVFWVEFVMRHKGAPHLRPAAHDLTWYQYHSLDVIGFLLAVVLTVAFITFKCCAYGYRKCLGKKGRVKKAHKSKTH
In words: Glucuronidation by recombinant UGT1A10 (activity screen and steady-state kinetics). As to conditions: for glucuronidation activity (initial screen): 750 μM substrate, 90 min.

Another series has as its target T5, recombinant human UGT1A1 (Homo sapiens, UniProt P22309).
T5 sequence (P22309 26-533): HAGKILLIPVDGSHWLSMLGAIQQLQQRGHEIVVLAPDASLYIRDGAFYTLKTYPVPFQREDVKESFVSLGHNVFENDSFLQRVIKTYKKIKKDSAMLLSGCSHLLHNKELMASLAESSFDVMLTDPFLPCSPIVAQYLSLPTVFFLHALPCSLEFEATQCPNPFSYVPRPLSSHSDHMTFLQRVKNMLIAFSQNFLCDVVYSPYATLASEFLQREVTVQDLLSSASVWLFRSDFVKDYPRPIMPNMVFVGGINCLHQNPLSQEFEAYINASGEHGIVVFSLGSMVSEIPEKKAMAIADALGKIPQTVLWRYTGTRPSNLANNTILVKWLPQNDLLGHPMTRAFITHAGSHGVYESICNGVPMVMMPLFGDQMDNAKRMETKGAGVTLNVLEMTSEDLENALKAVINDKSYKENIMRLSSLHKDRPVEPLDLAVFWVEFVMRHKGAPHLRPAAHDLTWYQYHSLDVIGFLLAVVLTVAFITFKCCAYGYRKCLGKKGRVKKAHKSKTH
The series can be described thus: Glucuronidation by recombinant UGT1A1 (activity screen and steady-state kinetics). As to conditions: UDP-GlcUA 4 mM.

The next series has as its target T6, recombinant human UGT1A3 (Homo sapiens, UniProt P35503).
T6 sequence (P35503 29-534): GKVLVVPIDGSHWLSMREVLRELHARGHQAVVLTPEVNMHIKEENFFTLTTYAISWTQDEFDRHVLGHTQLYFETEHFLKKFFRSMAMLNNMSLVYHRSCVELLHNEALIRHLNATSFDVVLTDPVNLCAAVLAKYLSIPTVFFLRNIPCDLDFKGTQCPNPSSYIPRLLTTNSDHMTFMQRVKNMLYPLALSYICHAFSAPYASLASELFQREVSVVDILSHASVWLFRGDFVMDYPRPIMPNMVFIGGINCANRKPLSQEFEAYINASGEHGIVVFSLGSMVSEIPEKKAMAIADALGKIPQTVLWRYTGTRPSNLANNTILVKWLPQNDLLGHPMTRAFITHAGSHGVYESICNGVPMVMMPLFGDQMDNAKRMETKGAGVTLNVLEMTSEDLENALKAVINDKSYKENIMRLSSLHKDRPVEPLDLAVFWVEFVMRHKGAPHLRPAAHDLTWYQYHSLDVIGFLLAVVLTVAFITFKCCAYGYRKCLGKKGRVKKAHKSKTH
In words: Glucuronidation by recombinant UGT1A3 (activity screen and steady-state kinetics). As to conditions: UDP-GlcUA 4 mM.

The mark [5] stands for this setting: 5 μg membrane protein, 37° C., 30 min, TLC.
Where [6] appears, read: 5 μg membrane protein, 37° C., 30 min, TLC, normalized.

The text below walks through data of patent US8410064B2, “Classical cannabinoid metabolites and methods of use thereof” (priority 2009, dated 2013).

In general, Km refers to the concentration of substrate that gives half-maximal velocity.

On to `C=C(C)[C@@H]1CCC(C)=C[C@H]1c1c(O)cc(CCCCC)cc1O` [CBD, cannabidiol], for which the “glucuronidation activity (initial screen)” value (on recombinant human UGT1A9; on recombinant human UGT2B7; in [1]; with human liver microsomes) was “minimal amount of a glucuronidated CBD product” in each case. Also, in the series with human UGTs [2], the “glucuronidation activity (initial screen), overall” value is “limited”. In addition, the “glucuronidated product detected by LC-MS/MS” value in the series on human UGTs [3] is reported as “confirming the glucuronide production”.
Take `CCCCCc1cc(O)c2c(c1)OC(C)(C)c1ccc(C)cc1-2` [CBN, cannabinol]: in [4] (UDP-GlcUA 4 mM), the “glucuronidation activity (initial screen)” value is “glucuronidated at high levels”. Moreover, the “effectiveness of conjugation relative to 11-OH-THC” value in series [4] (CBN versus 11-OH-THC) amounted to 3 fold.
On to `CCCCCc1cc(O)c2c(c1)OC(C)(C)[C@@H]1CCC(C(=O)O)=C[C@@H]21` [COOH-THC, (−)-11-nor-9-carboxy-Δ^9-THC], for which the values for the Km at recombinant human UGT1A1 (setting [5]) and at recombinant human UGT1A3 (setting [5]) were 170 ± 37 µM and 68 ± 17 µM, respectively. The Vmax is on record as 0.22 ± 0.02 nmol/mg protein/min on recombinant human UGT1A1 (setting [6]) and 0.68 ± 0.06 nmol/mg protein/min at recombinant human UGT1A3 (setting [6]). In addition, the “glucuronidation activity (initial screen)” value on recombinant human UGT1A1 (750 μM substrate, 90 min) is on record as “significant amount of activity”; on recombinant human UGT1A3 (750 μM substrate, 90 min) it was “highest activity”; in the series with human liver microsomes, “significant amount of activity”.
For the compound (±)-11-hydroxy-Δ^9-THC [11-OH-THC], the Km on recombinant human UGT1A9 (setting [5]) came to 73 ± 1.9 µM; in series [4] (5 μg membrane protein, UDP-GlcUA 4 mM, 37° C., 30 min, TLC), 72 ± 19 µM. In addition, the Vmax worked out at 0.14 ± 0.01 nmol/mg protein/min on recombinant human UGT1A9 (setting [6]) and 0.33 ± 0.03 nmol/mg protein/min in series [4] (5 μg membrane protein, UDP-GlcUA 4 mM, 37° C., 30 min, TLC, normalized). Also, the “glucuronidation activity (initial screen)” value (at recombinant human UGT1A9; in series [4] (UDP-GlcUA 4 mM)) was “specifically glucuronidated” in each case.
Consider Δ^9-Tetrahydrocannabinol [(−)-Δ^9-THC], for which, in the series on human UGTs [3], the “glucuronidated product detected by LC-MS/MS” value is on record as “confirming the glucuronide production”.
